{"source": "ChEMBL document CHEMBL1201862", "about": "“PubChem BioAssay data set” (2004)", "experiment_in_all_cases": "growth of human tumour cells (NCI), 48 h", "key": {"NCI-H23": {"tested_on": "NCI-H23"}, "NCI-H460": {"tested_on": "NCI-H460"}, "SNB-75": {"tested_on": "SNB-75"}, "OVCAR-4": {"tested_on": "OVCAR-4"}, "SNB-19": {"tested_on": "SNB-19"}, "Hs-578T": {"tested_on": "Hs-578T"}, "OVCAR-8": {"tested_on": "OVCAR-8"}, "SN12C": {"tested_on": "SN12C"}, "SF-295": {"tested_on": "SF-295"}, "SR": {"tested_on": "SR"}, "OVCAR-5": {"tested_on": "OVCAR-5"}, "RXF 393": {"tested_on": "RXF 393"}, "786-0": {"tested_on": "786-0"}, "CCRF-CEM": {"tested_on": "CCRF-CEM"}, "DU-145": {"tested_on": "DU-145"}, "MDA-MB-231": {"tested_on": "MDA-MB-231"}, "TK-10": {"tested_on": "TK-10"}, "CAKI-1": {"tested_on": "CAKI-1"}, "OVCAR-3": {"tested_on": "OVCAR-3"}, "HT-29": {"tested_on": "HT-29"}, "HCT-15": {"tested_on": "HCT-15"}, "HCC 2998": {"tested_on": "HCC 2998"}, "SK-MEL-28": {"tested_on": "SK-MEL-28"}, "MDA-N": {"tested_on": "MDA-N"}, "SF-268": {"tested_on": "SF-268"}, "UO-31": {"tested_on": "UO-31"}, "UACC-62": {"tested_on": "UACC-62"}, "EKVX": {"tested_on": "EKVX"}, "K562": {"tested_on": "K562"}, "NCI-H226": {"tested_on": "NCI-H226"}, "PC-3": {"tested_on": "PC-3"}, "U-251": {"tested_on": "U-251"}, "NCI/ADR-RES": {"tested_on": "NCI/ADR-RES"}, "HCT-116": {"tested_on": "HCT-116"}, "MCF7": {"tested_on": "MCF7"}, "ACHN": {"tested_on": "ACHN"}, "T47D": {"tested_on": "T47D"}, "KM12": {"tested_on": "KM12"}, "UACC-257": {"tested_on": "UACC-257"}, "IGROV-1": {"tested_on": "IGROV-1"}, "HOP-62": {"tested_on": "HOP-62"}, "RPMI-8226": {"tested_on": "RPMI-8226"}, "Malme-3M": {"tested_on": "Malme-3M"}, "NCI-H522": {"tested_on": "NCI-H522"}, "HOP-92": {"tested_on": "HOP-92"}, "MOLT-4": {"tested_on": "MOLT-4"}, "SF-539": {"tested_on": "SF-539"}, "HL-60": {"tested_on": "HL-60"}, "SK-MEL-5": {"tested_on": "SK-MEL-5"}, "M14": {"tested_on": "M14"}, "LOX IMVI": {"tested_on": "LOX IMVI"}, "SW-620": {"tested_on": "SW-620"}, "MDA-MB-435": {"tested_on": "MDA-MB-435"}, "A549": {"tested_on": "A549"}, "A498": {"tested_on": "A498"}, "SK-OV-3": {"tested_on": "SK-OV-3"}, "COLO 205": {"tested_on": "COLO 205"}, "SK-MEL-2": {"tested_on": "SK-MEL-2"}}, "note": "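Step 1: Grow cells in 96-well plates. Step 2: Expose to compound for 48 hours at 5 concentrations. Step 3: Interpolate endpoints linearly; if unreached, use highest concentration. GI50 is the concentration that inhibits growth by half.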 Calls of active or inactive are those of the source. No stated cut-off is given here; in the data, active = GI50 up to about 1.1 µM and inactive = higher.", "data": [{"smiles": "CN(C)Cc1cc(C(=O)/C=C/c2ccc(F)cc2)cc(CN(C)C)c1O", "values": [{"measurement": "GI50", "setting": "NCI-H23", "result": "34.4 µM (inactive)"}, {"measurement": "GI50", "setting": "NCI-H460", "result": "10.5 µM (inactive)"}, {"measurement": "GI50", "setting": "SNB-75", "result": "22.9 µM (inactive)"}, {"measurement": "GI50", "setting": "OVCAR-4", "result": "41.8 µM (inactive)"}, {"measurement": "GI50", "setting": "SNB-19", "result": "25.4 µM (inactive)"}, {"measurement": "GI50", "setting": "Hs-578T", "result": "24.7 µM (inactive)"}, {"measurement": "GI50", "setting": "OVCAR-8", "result": "21.4 µM (inactive)"}, {"measurement": "GI50", "setting": "SN12C", "result": "18.4 µM (inactive)"}, {"measurement": "GI50", "setting": "SF-295", "result": "14 µM (inactive)"}, {"measurement": "GI50", "setting": "SR", "result": "20.6 µM (inactive)"}, {"measurement": "GI50", "setting": "OVCAR-5", "result": "57.7 µM (inactive)"}, {"measurement": "GI50", "setting": "RXF 393", "result": "12.9 µM (inactive)"}, {"measurement": "GI50", "setting": "786-0", "result": "37.7 µM (inactive)"}, {"measurement": "GI50", "setting": "CCRF-CEM", "result": "17 µM (inactive)"}, {"measurement": "GI50", "setting": "DU-145", "result": "42.2 µM (inactive)"}, {"measurement": "GI50", "setting": "MDA-MB-231", "result": "31 µM (inactive)"}, {"measurement": "GI50", "setting": "TK-10", "result": "85.9 µM (inactive)"}, {"measurement": "GI50", "setting": "CAKI-1", "result": "18.7 µM (inactive)"}, {"measurement": "GI50", "setting": "OVCAR-3", "result": "9.23 µM (inactive)"}, {"measurement": "GI50", "setting": "HT-29", "result": "23 µM (inactive)"}, {"measurement": "GI50", "setting": "HCT-15", "result": 7.78, "unit": "µM"}, {"measurement": "GI50", "setting": "HCC 2998", "result": "> 10 µM (inactive)"}, {"measurement": "GI50", "setting": "SK-MEL-28", "result": "29.2 µM (inactive)"}, {"measurement": "GI50", "setting": "MDA-N", "result": "> 10 µM (inactive)"}, {"measurement": "GI50", "setting": "SF-268", "result": "22.8 µM (inactive)"}, {"measurement": "GI50", "setting": "UO-31", "result": "13.4 µM (inactive)"}, {"measurement": "GI50", "setting": "UACC-62", "result": "3.14 µM (inactive)"}, {"measurement": "GI50", "setting": "EKVX", "result": "35.6 µM (inactive)"}, {"measurement": "GI50", "setting": "K562", "result": "17.8 µM (inactive)"}, {"measurement": "GI50", "setting": "NCI-H226", "result": "38.6 µM (inactive)"}, {"measurement": "GI50", "setting": "PC-3", "result": "27.5 µM (inactive)"}, {"measurement": "GI50", "setting": "U-251", "result": "24.4 µM (inactive)"}, {"measurement": "GI50", "setting": "NCI/ADR-RES", "result": "24.7 µM (inactive)"}, {"measurement": "GI50", "setting": "HCT-116", "result": "13.4 µM (inactive)"}, {"measurement": "GI50", "setting": "MCF7", "result": "16.2 µM (inactive)"}, {"measurement": "GI50", "setting": "ACHN", "result": "14.6 µM (inactive)"}, {"measurement": "GI50", "setting": "T47D", "result": "18 µM (inactive)"}, {"measurement": "GI50", "setting": "KM12", "result": "18.9 µM (inactive)"}, {"measurement": "GI50", "setting": "UACC-257", "result": "13.4 µM (inactive)"}, {"measurement": "GI50", "setting": "IGROV-1", "result": "22.4 µM (inactive)"}, {"measurement": "GI50", "setting": "HOP-62", "result": "21.6 µM (inactive)"}, {"measurement": "GI50", "setting": "RPMI-8226", "result": "22.5 µM (inactive)"}, {"measurement": "GI50", "setting": "Malme-3M", "result": "17.7 µM (inactive)"}, {"measurement": "GI50", "setting": "NCI-H522", "result": "15.2 µM (inactive)"}, {"measurement": "GI50", "setting": "HOP-92", "result": "29.2 µM (inactive)"}, {"measurement": "GI50", "setting": "MOLT-4", "result": "19.5 µM (inactive)"}, {"measurement": "GI50", "setting": "SF-539", "result": "21.1 µM (inactive)"}, {"measurement": "GI50", "setting": "HL-60", "result": "11.5 µM (inactive)"}, {"measurement": "GI50", "setting": "SK-MEL-5", "result": "19.1 µM (inactive)"}, {"measurement": "GI50", "setting": "M14", "result": "12.4 µM (inactive)"}, {"measurement": "GI50", "setting": "LOX IMVI", "result": "5.92 µM (inactive)"}, {"measurement": "GI50", "setting": "SW-620", "result": "20.4 µM (inactive)"}, {"measurement": "GI50", "setting": "MDA-MB-435", "result": "16.3 µM (inactive)"}, {"measurement": "GI50", "setting": "A549", "result": "26.6 µM (inactive)"}, {"measurement": "GI50", "setting": "A498", "result": "24.5 µM (inactive)"}]}, {"smiles": "Clc1ccc(OCc2nnc3sc(SSc4nn5c(COc6ccc(Cl)cc6)nnc5s4)nn23)cc1", "values": [{"measurement": "GI50", "setting": "NCI-H23", "result": "> 100 µM (inactive)"}, {"measurement": "GI50", "setting": "NCI-H460", "result": "> 100 µM (inactive)"}, {"measurement": "GI50", "setting": "SNB-75", "result": "> 100 µM (inactive)"}, {"measurement": "GI50", "setting": "SNB-19", "result": "> 100 µM (inactive)"}, {"measurement": "GI50", "setting": "SK-OV-3", "result": "> 100 µM (inactive)"}, {"measurement": "GI50", "setting": "Hs-578T", "result": "> 100 µM (inactive)"}, {"measurement": "GI50", "setting": "OVCAR-8", "result": "> 100 µM (inactive)"}, {"measurement": "GI50", "setting": "SN12C", "result": "> 100 µM (inactive)"}, {"measurement": "GI50", "setting": "SF-295", "result": "> 100 µM (inactive)"}, {"measurement": "GI50", "setting": "OVCAR-5", "result": "> 100 µM (inactive)"}, {"measurement": "GI50", "setting": "786-0", "result": "> 100 µM (inactive)"}, {"measurement": "GI50", "setting": "DU-145", "result": "> 100 µM (inactive)"}, {"measurement": "GI50", "setting": "MDA-MB-231", "result": "> 100 µM (inactive)"}, {"measurement": "GI50", "setting": "HT-29", "result": "> 100 µM (inactive)"}, {"measurement": "GI50", "setting": "SK-MEL-28", "result": "> 100 µM (inactive)"}, {"measurement": "GI50", "setting": "SF-268", "result": "> 100 µM (inactive)"}, {"measurement": "GI50", "setting": "UO-31", "result": "52 µM (inactive)"}, {"measurement": "GI50", "setting": "EKVX", "result": "66.5 µM (inactive)"}, {"measurement": "GI50", "setting": "K562", "result": "74.3 µM (inactive)"}, {"measurement": "GI50", "setting": "NCI-H226", "result": "> 100 µM (inactive)"}, {"measurement": "GI50", "setting": "U-251", "result": "> 100 µM (inactive)"}, {"measurement": "GI50", "setting": "NCI/ADR-RES", "result": "> 100 µM (inactive)"}, {"measurement": "GI50", "setting": "HCT-116", "result": "> 100 µM (inactive)"}, {"measurement": "GI50", "setting": "ACHN", "result": "> 100 µM (inactive)"}, {"measurement": "GI50", "setting": "T47D", "result": "49.5 µM (inactive)"}, {"measurement": "GI50", "setting": "KM12", "result": "> 100 µM (inactive)"}, {"measurement": "GI50", "setting": "UACC-257", "result": "> 100 µM (inactive)"}, {"measurement": "GI50", "setting": "IGROV-1", "result": "> 100 µM (inactive)"}, {"measurement": "GI50", "setting": "COLO 205", "result": "> 100 µM (inactive)"}, {"measurement": "GI50", "setting": "SK-MEL-2", "result": "> 100 µM (inactive)"}, {"measurement": "GI50", "setting": "HOP-62", "result": "> 100 µM (inactive)"}, {"measurement": "GI50", "setting": "RPMI-8226", "result": "44.8 µM (inactive)"}, {"measurement": "GI50", "setting": "Malme-3M", "result": "> 100 µM (inactive)"}, {"measurement": "GI50", "setting": "NCI-H522", "result": "63.1 µM (inactive)"}, {"measurement": "GI50", "setting": "SF-539", "result": "> 100 µM (inactive)"}, {"measurement": "GI50", "setting": "HL-60", "result": "> 100 µM (inactive)"}, {"measurement": "GI50", "setting": "SK-MEL-5", "result": "60.8 µM (inactive)"}, {"measurement": "GI50", "setting": "M14", "result": "> 100 µM (inactive)"}, {"measurement": "GI50", "setting": "LOX IMVI", "result": "> 100 µM (inactive)"}, {"measurement": "GI50", "setting": "SW-620", "result": "> 100 µM (inactive)"}, {"measurement": "GI50", "setting": "MDA-MB-435", "result": "92.9 µM (inactive)"}, {"measurement": "GI50", "setting": "A549", "result": "> 100 µM (inactive)"}]}]}
